In US4727080A, “1-substituted derivatives of 6-fluoro-7-(pyrrol-1-yl)-1,4-dihydro-4-oxoquinoline-3-carboxylic acid, their preparation and their application as drugs” (Provesan S.A., priority 1984, dated 1988):
≈ marks a conversion by molar mass, not a printed value.

Tests used:
[1] = test system: Streptococcus faecalis ATCC 10541; assay: "In vitro" MIC, Streptococcus faecalis; type: cell-based; conditions: Enterococcus faecalis, ATCC10541; Streptococcus faecalis ATCC 10541; dextrose agar, 37° C., 20 hours; read-out: "In vitro" MIC
Protocol: (§1) Antimicrobial pharmacological activity (G. L. Daquet and Y. A. Chabbect, Techniques en bacteriologie (Techniques in bacteriology), vol. 3, Flammarion Medecine-Sciences, Paris, 1972, and W. B. Hugo and A. D. Rusell, Pharmaceutical Microbiology, Blackwell Scientific Publications, London (1977).
Streptococcus faecalis ATCC 10541
(§2) A streak culture of each of the microorganisms is formed in tubes of antibiotics agar no. 1 and incubated for 20 hours at 37° C. A culture loop is then taken and a culture is formed in a tryptone-soya broth and incubated for 20 hours at 37° C. The resulting culture is diluted to 1/4 with Ringer's physiological solution to give a standardized suspension of 10^5 ufc/ml for each organism.
(§3) Starting from a solution of 1000 μg/ml in 0.1N NaOH, each product is diluted successively in dextrose agar (melted beforehand and kept at 50° C.) to give the following concentrations: 64-32-16-8-4-2-1-0.5-0.25-0.125 μg of derivative/ml of medium.
(§4) After this, each concentration of each product is divided up into Petri dishes of 10 cm diameter at a rate of 10 ml of medium per dish and using as many dishes as there are microorganisms to be tested.
(§5) Once the medium has cooled, the dishes are treated with the inoculations at a rate of 0.4 ml of inoculation per dish. They are spread out with a Drigalski loop and the supernatant is collected. The inoculated dishes are incubated at 37° C. for 20 hours.

[2] = test system: Salmonella typhimurium AMES 98; assay: "In vitro" MIC, Salmonella typhimurium AMES 98; type: cell-based; conditions: Salmonella enterica; Salmonella typhimurium AMES 98; dextrose agar, 37° C., 20 hours; read-out: "In vitro" MIC
Protocol: as §1
Salmonella typhimurium AMES 98
as §2, §3, §4, §5

[3] = test system: Pseudomonas aeruginosa ADSA 47; assay: "In vitro" MIC, Pseudomonas aeruginosa ADSA 47; type: cell-based; conditions: ADSA47; Pseudomonas aeruginosa ADSA 47; dextrose agar, 37° C., 20 hours; read-out: "In vitro" MIC
Protocol: as §1
Pseudomonas aeruginosa ADSA 47
as §2, §3, §4, §5

Acute toxicity to mice = conditions: mouse, in vivo, ip, suspension in 5% gum arabic, mortality over 7 days
Protocol: The experimental animals used to determine this toxicity were albino mice of the C.F.L.P. strain and of both sexes, weighing between 19 and 25 grams. After an 18-hour fasting period with water "ad libitum", the derivatives forming the subject of the present invention are administered intraperitoneally as a suspension in 5% gum arabic. The volume of suspension administered was 0.4 ml/20 grams (20 ml/kg) in all cases, the concentration of the suspension being changed according to the dose administered.
One hour after administration of the derivatives, the animals are given a standard Panlab rat-mouse food. The mortality was observed over a period of 7 days. Differences in mortality between the sexes were not observed with any of the products.

[4] = test system: Serratia marcescens ATTC 13880; assay: "In vitro" MIC, Serratia marcescens; type: cell-based; conditions: ATTC13880; Serratia marcescens ATTC 13880; dextrose agar, 37° C., 20 hours; read-out: "In vitro" MIC
Protocol: as §1
Serratia marcescens ATTC 13880
as §2, §3, §4, §5

[5] = test system: Enterobacter cloacae CHSP-20; assay: "In vitro" MIC, Enterobacter cloacae; type: cell-based; conditions: CHSP20; Enterobacter cloacae CHSP-20; dextrose agar, 37° C., 20 hours; read-out: "In vitro" MIC
Protocol: as §1
Enterobacter cloacae CHSP-20
as §2, §3, §4, §5

[6] = test system: Salmonella typhimurium AMES 100; assay: "In vitro" MIC, Salmonella typhimurium AMES 100; type: cell-based; conditions: Salmonella enterica; Salmonella typhimurium AMES 100; dextrose agar, 37° C., 20 hours; read-out: "In vitro" MIC
Protocol: as §1
Salmonella typhimurium AMES 100
as §2, §3, §4, §5

Shigella flexnerii = assay: "In vitro" MIC, Shigella flexnerii; type: cell-based; conditions: 20 h, read-out: "In vitro" MIC
Protocol: as §1, §2, §3, §4, §5

Escherichia coli R-1513 = assay: "In vitro" MIC, Escherichia coli R-1513; type: cell-based; conditions: R1513; Escherichia coli R-1513; dextrose agar, 37° C., 20 hours; read-out: "In vitro" MIC
Protocol: as §1, §2, §3, §4, §5

Gram-positive cocci = assay: "In vitro" antimicrobial activity compared with nalidixic acid, Gram-positive cocci; type: cell-based
Protocol: as §1, §2, §3, §4, §5

Proteus morganii CHSP-16 = assay: "In vitro" MIC, Proteus morganii; type: cell-based; conditions: Morganella morganii, CHSP16; Proteus morganii CHSP-16; dextrose agar, 37° C., 20 hours; read-out: "In vitro" MIC
Protocol: as §1, §2, §3, §4, §5

[7] = test system: Staphylococcus aureus ATCC 5488/23; assay: "In vitro" MIC, Staphylococcus aureus ATCC 5488/23; type: cell-based; conditions: ATCC5488; Staphylococcus aureus ATCC 5488/23; dextrose agar, 37° C., 20 hours; read-out: "In vitro" MIC
Protocol: as §1
Staphylococcus aureus ATCC 5488/23
as §2, §3, §4, §5

[8] = test system: Bacillus subtilis ATCC 6633; assay: "In vitro" MIC, Bacillus subtilis; type: cell-based; conditions: ATCC6633; Bacillus subtilis ATCC 6633; dextrose agar, 37° C., 20 hours; read-out: "In vitro" MIC
Protocol: as §1
Bacillus subtilis ATCC 6633
as §2, §3, §4, §5

[9] = test system: Gram-negative microorganisms; assay: "In vitro" antimicrobial activity compared with nalidixic acid, Gram-negative microorganisms; type: cell-based
Protocol: as §1, §2, §3, §4, §5

Sarcina lutea ATCC 9341 = assay: "In vitro" MIC, Sarcina lutea; type: cell-based; conditions: Micrococcus luteus, ATCC9341; Sarcina lutea ATCC 9341; dextrose agar, 37° C., 20 hours; read-out: "In vitro" MIC
Protocol: as §1, §2, §3, §4, §5

[10] = test system: Staphylococcus aureus ATCC 25178; assay: "In vitro" MIC, Staphylococcus aureus ATCC 25178; type: cell-based; conditions: ATCC25178; Staphylococcus aureus ATCC 25178; dextrose agar, 37° C., 20 hours; read-out: "In vitro" MIC
Protocol: as §1
Staphylococcus aureus ATCC 25178
as §2, §3, §4, §5

[11] = test system: Citrobacter freundii ATCC 11606; assay: "In vitro" MIC, Citrobacter freundii; type: cell-based; conditions: ATCC11606; Citrobacter freundii ATCC 11606; dextrose agar, 37° C., 20 hours; read-out: "In vitro" MIC
Protocol: as §1
Citrobacter freundii ATCC 11606
as §2, §3, §4, §5

[12] = test system: Pseudomonas aeruginosa 25115; assay: "In vitro" MIC, Pseudomonas aeruginosa 25115; type: cell-based; conditions: Pseudomonas aeruginosa 25115; dextrose agar, 37° C., 20 hours; read-out: "In vitro" MIC
Protocol: as §1
Pseudomonas aeruginosa 25115
as §2, §3, §4, §5

[13] = test system: Micrococcus flavus ATCC 10240; assay: "In vitro" MIC, Micrococcus flavus; type: cell-based; conditions: ATCC10240; Micrococcus flavus ATCC 10240; dextrose agar, 37° C., 20 hours; read-out: "In vitro" MIC
Protocol: as §1
Micrococcus flavus ATTC 10240
as §2, §3, §4, §5

[14] = test system: Proteus mirabilis ATCC 4675; assay: "In vitro" MIC, Proteus mirabilis; type: cell-based; conditions: ATCC4675; Proteus mirabilis ATCC 4675; dextrose agar, 37° C., 20 hours; read-out: "In vitro" MIC
Protocol: as §1
Proteus mirabilis ATCC 4675
as §2, §3, §4, §5

[15] = test system: Enterobacter aerogenes ATCC 15038; assay: "In vitro" MIC, Enterobacter aerogenes; type: cell-based; conditions: Klebsiella aerogenes, ATCC15038; Enterobacter aerogenes ATCC 15038; dextrose agar, 37° C., 20 hours; read-out: "In vitro" MIC
Protocol: as §1
Enterobacter aerogenes ATCC 15038
as §2, §3, §4, §5

[16] = test system: Escherichia coli ATCC 10536; assay: "In vitro" MIC, Escherichia coli ATCC 10536; type: cell-based; conditions: ATCC10536; Escherichia coli ATCC 10536; dextrose agar, 37° C., 20 hours; read-out: "In vitro" MIC
Protocol: as §1
Escherichia coli ATCC 10536
as §2, §3, §4, §5

[17] = test system: Klebsiella pneumoniae ATCC 10031; assay: "In vitro" MIC, Klebsiella pneumoniae; type: cell-based; conditions: ATCC10031; Klebsiella pneumoniae ATCC 10031; dextrose agar, 37° C., 20 hours; read-out: "In vitro" MIC
Protocol: as §1
Klebsiella pneumoniae ATCC 10031
as §2, §3, §4, §5

all microorganisms = assay: "In vitro" antimicrobial activity compared with nalidixic acid, all microorganisms; type: cell-based; conditions: against all microorganisms
Protocol: as §1, §2, §3, §4, §5

Row | SMILES | MIC [1] | MIC [2] | MIC [3] | LD50 at 168 h (Acute toxicity to mice) | MIC [4] | MIC [5] | MIC [6] | MIC (Shigella flexnerii) | MIC (Escherichia coli R-1513) | MIC (Proteus morganii CHSP-16) | MIC [7] | MIC [8] | MIC (Sarcina lutea ATCC 9341) | MIC [10] | MIC [11] | MIC [12] | MIC [13] | MIC [14] | MIC [15] | MIC [16] | further results
1 | CCCn1cc(C(=O)O)c(=O)c2cc(F)c(-n3cccc3)cc21 [Example 5, 6-fluoro-7-(pyrrol-1-yl)-1-propyl-4-oxo-1,4-dihydroquinoline-3-carboxylic acid] | 8 µg/mL (≈ 25.5 µM) | 1 µg/mL (≈ 3.18 µM) | 32 µg/mL (≈ 102 µM) | > 1600 mg/kg | 1 µg/mL (≈ 3.18 µM) | 4 µg/mL (≈ 12.7 µM) | 1 µg/mL (≈ 3.18 µM) | 4 µg/mL (≈ 12.7 µM) | 8 µg/mL (≈ 25.5 µM) | 8 µg/mL (≈ 25.5 µM) | 0.5 µg/mL (≈ 1.59 µM) | 0.125 µg/mL (≈ 0.398 µM) | 8 µg/mL (≈ 25.5 µM) | 0.5 µg/mL (≈ 1.59 µM) | 8 µg/mL (≈ 25.5 µM) | 32 µg/mL (≈ 102 µM) | 8 µg/mL (≈ 25.5 µM) | 16 µg/mL (≈ 50.9 µM) | 8 µg/mL (≈ 25.5 µM) | 0.5 µg/mL (≈ 1.59 µM) | "in vitro" activity compared with nalidixic acid (Gram-positive cocci): greater activity towards Gram-positive cocci; activity compared with nalidixic acid [9]: activity of the same order as nalidixic acid; MIC [17]: 0.5 µg/mL (≈ 1.59 µM)
2 | CCNn1cc(C(=O)O)c(=O)c2cc(F)c(-n3cccc3)cc21 [Example 8, 6-fluoro-7-(pyrrol-1-yl)-1-ethylamino-4-oxo-1,4-dihydroquinoline-3-carboxylic acid] | 4 µg/mL (≈ 12.7 µM) | 0.062 µg/mL (≈ 0.197 µM) | ≥ 32 µg/mL | > 1600 mg/kg | 2 µg/mL (≈ 6.34 µM) | 1 µg/mL (≈ 3.17 µM) | 1 µg/mL (≈ 3.17 µM) | 1 µg/mL (≈ 3.17 µM) | 4 µg/mL (≈ 12.7 µM) | 4 µg/mL (≈ 12.7 µM) | 0.25 µg/mL (≈ 0.793 µM) | ≤ 0.062 µg/mL | 4 µg/mL (≈ 12.7 µM) | 0.25 µg/mL (≈ 0.793 µM) | 4 µg/mL (≈ 12.7 µM) | 16 µg/mL (≈ 50.7 µM) | 2 µg/mL (≈ 6.34 µM) | 8 µg/mL (≈ 25.4 µM) | 2 µg/mL (≈ 6.34 µM) | 0.062 µg/mL (≈ 0.197 µM) | "in vitro" activity compared with nalidixic acid (Gram-positive cocci): greater activity towards Gram-positive cocci; activity compared with nalidixic acid [9]: activity of the same order as nalidixic acid; MIC [17]: 0.25 µg/mL (≈ 0.793 µM)
3 | O=C(O)c1cn(C2CC2)c2cc(-n3cccc3)c(F)cc2c1=O [Example 9, 6-fluoro-7-(pyrrol-1-yl)-1-cyclopropyl-1,4-dihydro-4-oxoquinoline-3-carboxylic acid] | 0.25 µg/mL (≈ 0.801 µM) | 1 µg/mL (≈ 3.2 µM) | 2 µg/mL (≈ 6.4 µM) | > 1600 mg/kg | 0.5 µg/mL (≈ 1.6 µM) | 0.12 µg/mL (≈ 0.384 µM) | < 0.06 µg/mL | 0.2 µg/mL (≈ 0.64 µM) | 0.12 µg/mL (≈ 0.384 µM) | 0.5 µg/mL (≈ 1.6 µM) | < 0.06 µg/mL | 0.25 µg/mL (≈ 0.801 µM) | 0.5 µg/mL (≈ 1.6 µM) | < 0.06 µg/mL | 0.25 µg/mL (≈ 0.801 µM) | 1 µg/mL (≈ 3.2 µM) | 0.5 µg/mL (≈ 1.6 µM) | 0.5 µg/mL (≈ 1.6 µM) | 0.12 µg/mL (≈ 0.384 µM) | < 0.06 µg/mL | activity compared with nalidixic acid (all microorganisms): greater than the activity of nalidixic acid; MIC [17]: < 0.06 µg/mL
